Measurements taken from patent publication US20240408169A1 (priority 2023, published 2024).
*1 amine or outer side, *2 acyl side, *3 side chain or, on linkers, in order; H or OH if unused. Where a SMILES comes first, the peptide text is derived from it. Bridges are numbered along the chain shown (N, C = ends). [ ]: non-standard residue; d: D form. The star is where a group is joined. X110 = CC(C)C(=O)N1[C@H]2CC[C@@H]1C=C(c1ccc(Cl)cc1C[C@@H](C(=O)[*:2])N(C)[*:1])C2; X106 = CN([C@@H](Cc1cc(Cl)ccc1-c1ccc(N2CCN(Cc3ccccn3)CC2)cc1)C(=O)[*:2])[*:1]; NMePhe(2-(4-MorPh),5-Cl) = CN[C@@H](Cc1cc(Cl)ccc1-c1ccc(N2CCOCC2)cc1)C(=O)O; X1 = C[C@H]1CN(c2ccc(-c3ccc(Cl)cc3C[C@@H](C(=O)[*:2])N(C)[*:1])cc2)CCN1C; X98 = CN1CC2(C1)OCc1cc(-c3ccc(Cl)cc3C[C@@H](C(=O)[*:2])N(C)[*:1])ccc12; X18 = CC(=O)N1CCC(=Cc2ccc(Cl)cc2C[C@@H](C(=O)[*:2])N(C)[*:1])CC1; X68 = CN([C@@H](Cc1cc(Cl)ccc1-c1cnn(C2CC2)c1)C(=O)[*:2])[*:1]; X26 = CN([C@@H](Cc1cc(F)ccc1-c1cnn(C2CC2)c1)C(=O)[*:2])[*:1]; NMehhhLys(Me) = CN([C@@H](CCCCCCCN(C)[*:3])C(=O)[*:2])[*:1]; X112 = CN([C@@H](Cc1cc(F)ccc1-c1cnn(C)c1)C(=O)[*:2])[*:1]; X104 = CN([C@@H](Cc1cc(Cl)ccc1C1=CCOCC1)C(=O)[*:2])[*:1]; NMe(hhhLys) = CN([C@@H](CCCCCCCN[*:3])C(=O)[*:2])[*:1]; Cyclobutanecarbonyl(1-CF3) = O=C(C1(C(F)(F)F)CCC1)*; cBuCO(3,3-F2-1-CF3) = O=C(C1(C(F)(F)F)CC(F)(F)C1)*; Pro(trans-4-F) = O=C(O)[C@@H]1C[C@@H](F)CN1; Gly(cPr) = N[C@H](C(=O)O)C1CC1

Columns and labels:
[1] = molecular target: T1, CyclinB1/CDK1 (Homo sapiens, UniProt P14635); assay: Fluorescence Polarization (FP) competitive binding assay, Cyclin B1/Cdk1; settings: 10 nM Cyclin B1/Cdk1, 2 nM FAM probe; average of 2-3 independent experiments; read-out: Cyclin B FP IC50;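 also: fluorescence polarization read after equilibration at room temperature, with IC50 taken from serially diluted dose-response curves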
T1 construct: purchased Eurofins, discovery 14-450

[2] = molecular target: T2, CyclinE1/CDK2 (Homo sapiens, UniProt P24864); assay: Fluorescence Polarization (FP) competitive binding assay, Cyclin E1/Cdk2; settings: 10 nM Cyclin E1/Cdk2, 2 nM FAM probe; average of 2-3 independent experiments; read-out: Cyclin E FP IC50;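 also: readings taken after two-hour equilibration at room temperature in HEPES buffer with NaCl, DTT, NP-40 and BSA, IC50 fitted from eight-concentration serial dilution series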
T2 construct: purchased Eurofins, discovery 14-475

[3] = molecular target: T3, CyclinA2/CDK2 (Homo sapiens, UniProt P20248); assay: Fluorescence Polarization (FP) competitive binding assay, Cyclin A2/Cdk2; settings: 8 nM Cyclin A2/Cdk2, 2 nM FAM probe; average of 2-3 independent experiments; read-out: Cyclin A FP IC50;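 also: plates equilibrated two hours at room temperature before polarization reading, IC50 fitted from eight-concentration compound titration curves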
T3 construct: purchased CRELUX Protein Services

[4] = test system: OVCAR3 cells; assay: MTT proliferation assay, OVCAR3; type: cell-based; settings: 5 days compound exposure, 1:3 serial dilution starting at 10 μM;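 also: compound given as an 8- or 10-point series, one day after plating, with exposure covering roughly 3-4 cell doublings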
[5] = test system: WI-38 cells; assay: MTT proliferation assay, WI-38; type: cell-based; settings: 3 days compound exposure, 1:3 serial dilution starting at 10 μM;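 also: Eight- or ten-point dilution series, with exposure length chosen to span about three to four cell doublings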
[6] = test system: NCI-H1048 cells; assay: MTT proliferation assay, NCI-H1048; type: cell-based; settings: 5 days compound exposure, 1:3 serial dilution starting at 10 μM;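 also: Dose-response in 96-well plates over 8 or 10 concentration points, with exposure spanning 3-4 cell doublings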

Structure (SMILES) | IC50 [1] [nM] | IC50 [2] [nM] | IC50 [3] [nM] | GI50 [4] [nM] | GI50 [5] [nM] | GI50 [6] [nM]
CC(C)C[C@@H]1NC(=O)[C@@H](N(C)C(=O)[C@@H](NC(=O)[C@@H]2C[C@@H](F)CN2C(=O)C2(C(F)(F)F)CC(F)(F)C2)C2CC2)CCCCCCCNC(=O)[C@H](Cc2cc(Cl)ccc2C2=C[C@H]3CC[C@@H](C2)N3C(=O)C(C)C)N(C)C1=O [Example 313] ({cBuCO(3,3-F2-1-CF3)}-[Pro(trans-4-F)][Gly(cPr)][NMe(hhhLys)]L[X110]; lactam 3-C) | 20 | 640 | 20 | 10 | 36600 | 10
CC(C)C[C@@H]1NC(=O)[C@@H](N(C)C(=O)[C@@H](NC(=O)[C@@H]2C[C@@H](F)CN2C(=O)C2(C(F)(F)F)CC(F)(F)C2)C2CC2)CCCCCCCNC(=O)[C@H](Cc2cc(Cl)ccc2C2=CCOCC2)N(C)C1=O [Example 21] ({cBuCO(3,3-F2-1-CF3)}-[Pro(trans-4-F)][Gly(cPr)][NMe(hhhLys)]L[X104]; lactam 3-C) | 20 | 1130 | 20 | 20 | 6850 | 10
CC(C)C[C@@H]1NC(=O)[C@@H](N(C)C(=O)[C@@H](NC(=O)[C@@H]2C[C@@H](F)CN2C(=O)C2(C(F)(F)F)CC(F)(F)C2)C2CC2)CCCCCCCN(C)C(=O)[C@H](Cc2cc(Cl)ccc2-c2ccc(N3CCN(C)[C@@H](C)C3)cc2)N(C)C1=O [Example 409] ({cBuCO(3,3-F2-1-CF3)}-[Pro(trans-4-F)][Gly(cPr)][NMehhhLys(Me)]L[X1]; lactam 3-C) | 20 | 670 | 20 | 10 | 2460 | 10
CC(C)C[C@@H]1NC(=O)[C@@H](N(C)C(=O)[C@@H](NC(=O)[C@@H]2C[C@@H](F)CN2C(=O)C2(C(F)(F)F)CCC2)C2CC2)CC=CCCCCN(C)C(=O)[C@H](Cc2cc(F)ccc2-c2cnn(C)c2)N(C)C1=O [Example 40] | 20 | 240 | 50 | 50 | 15400 | 60
CC(C)C[C@@H]1NC(=O)[C@@H](N(C)C(=O)[C@@H](NC(=O)[C@@H]2C[C@@H](F)CN2C(=O)C2(C(F)(F)F)CCC2)C2CC2)CC=CCCCCNC(=O)[C@H](Cc2cc(Cl)cnc2OC2CC2)N(C)C1=O (single isomer, unassigned) [Example 107-P1] | 20 | 540 | 250 | 1010 | 5290 | 700
CC(C)C[C@@H]1NC(=O)[C@@H](N(C)C(=O)[C@@H](NC(=O)[C@@H]2C[C@@H](F)CN2C(=O)C2(C(F)(F)F)CCC2)C2CC2)CCCCCCCNC(=O)[C@H](Cc2cc(Cl)ccc2-c2cnn(C3CC3)c2)N(C)C1=O [Example 188] ({Cyclobutanecarbonyl(1-CF3)}-[Pro(trans-4-F)][Gly(cPr)][NMe(hhhLys)]L[X68]; lactam 3-C) | 20 | 230 | 20 | 20 | 3080 | 10
CC(C)C[C@@H]1NC(=O)[C@@H](N(C)C(=O)[C@H](CCC(=O)N2CCN(C)CC2)NC(=O)[C@@H]2C[C@@H](F)CN2C(=O)C2(C(F)(F)F)CC(F)(F)C2)CCCCCCCN(C)C(=O)[C@H](Cc2cc(Cl)ccc2-c2ccc(N3CCOCC3)cc2)N(C)C1=O [Example 420] | 20 | 190 | 20 | 20 | 3510 | 10
CC(C)C[C@@H]1NC(=O)[C@@H](N(C)C(=O)[C@@H](NC(=O)[C@@H]2C[C@@H](F)CN2C(=O)C2(C(F)(F)F)CC(F)(F)C2)C2CC2)CCCCCCCN(C)C(=O)[C@H](Cc2cc(Cl)ccc2-c2ccc(N3CCN(Cc4ccccn4)CC3)cc2)N(C)C1=O [Example 368] ({cBuCO(3,3-F2-1-CF3)}-[Pro(trans-4-F)][Gly(cPr)][NMehhhLys(Me)]L[X106]; lactam 3-C) | 20 | 480 | 20 | 10 | 15200 | 10
CC(C)C[C@@H]1NC(=O)[C@@H](N(C)C(=O)[C@@H](NC(=O)[C@@H]2C[C@@H](F)CN2C(=O)C2(C(F)(F)F)CCC2)C2CC2)CCCCCCCN(C)C(=O)[C@H](Cc2cc(F)ccc2-c2cnn(C)c2)N(C)C1=O [Example 69] ({Cyclobutanecarbonyl(1-CF3)}-[Pro(trans-4-F)][Gly(cPr)][NMehhhLys(Me)]L[X112]; lactam 3-C) | 20 | 110 | 20 | 10 | 17600 | 10
CC(C)C[C@@H]1NC(=O)[C@@H](N(C)C(=O)[C@@H](NC(=O)[C@@H]2C[C@@H](F)CN2C(=O)C2(C(F)(F)F)CC(F)(F)C2)C2CC2)CCCCCCCN(C)C(=O)[C@H](Cc2cc(F)ccc2-c2cnn(C3CC3)c2)N(C)C1=O [Example 68] ({cBuCO(3,3-F2-1-CF3)}-[Pro(trans-4-F)][Gly(cPr)][NMehhhLys(Me)]L[X26]; lactam 3-C) | 20 | 120 | 20 | 10 | 12800 | 10
CC(=O)N1[C@H]2CC[C@@H]1C=C(c1ccc(Cl)cc1C[C@H]1C(=O)N(C)CCCCCCC[C@H](N(C)C(=O)[C@@H](NC(=O)[C@@H]3C[C@@H](F)CN3C(=O)C3(C(F)(F)F)CC(F)(F)C3)C3CC3)C(=O)N[C@@H](CC(C)C)C(=O)N1C)C2 (single isomer, unassigned) [Example 57-P1] | 20 | 1410 | 20 | 10 | 13800 | 10
CC(C)C[C@@H]1NC(=O)[C@@H](N(C)C(=O)[C@@H](NC(=O)[C@@H]2C[C@@H](F)CN2C(=O)C2(C(F)(F)F)CC(F)(F)C2)C2CC2)CCCCCCCN(C)C(=O)[C@H](Cc2cc(Cl)ccc2-c2ccc3c(c2)COC32CN(C)C2)N(C)C1=O [Example 355] ({cBuCO(3,3-F2-1-CF3)}-[Pro(trans-4-F)][Gly(cPr)][NMehhhLys(Me)]L[X98]; lactam 3-C) | 20 | 1760 | 20 | 10 | 2770 | 10
CC(C)C[C@@H]1NC(=O)[C@@H](N(C)C(=O)[C@@H](NC(=O)[C@@H]2C[C@@H](F)CN2C(=O)C2(C(F)(F)F)CCC2)C2CC2)CC=CCCCCN(C)C(=O)[C@H](Cc2cc(Cl)cnc2OC2CC2)N(C)C1=O [Example 106] | 20 | 240 | 120 | 540 | 6390 | 410
CC(C)C[C@@H]1NC(=O)[C@@H](N(C)C(=O)[C@@H](NC(=O)[C@@H]2C[C@@H](F)CN2C(=O)C2(C(F)(F)F)CC(F)(F)C2)C2CC2)C/C=C\CCCCN(C)C(=O)[C@H](Cc2cc(Cl)cnc2OC2CC2)N(C)C1=O [Example 258] | 20 | 120 | 70 | 70 | 14200 | 70
CC(C)C[C@@H]1NC(=O)[C@@H](N(C)C(=O)[C@@H](NC(=O)[C@@H]2C[C@@H](F)CN2C(=O)C2(C(F)(F)F)CC(F)(F)C2)C2CC2)CC=CCCCCN(C)C(=O)[C@H](Cc2cc(Cl)ccc2-c2cnn(C3CC3)c2)N(C)C1=O [Example 78] | 20 | 640 | 40 | 40 | 4520 | 30
CC(=O)N1CCC(=Cc2ccc(Cl)cc2C[C@H]2C(=O)NCCCCCCC[C@H](N(C)C(=O)[C@@H](NC(=O)[C@@H]3C[C@@H](F)CN3C(=O)C3(C(F)(F)F)CC(F)(F)C3)C3CC3)C(=O)N[C@@H](CC(C)C)C(=O)N2C)CC1 [Example 288] ({cBuCO(3,3-F2-1-CF3)}-[Pro(trans-4-F)][Gly(cPr)][NMe(hhhLys)]L[X18]; lactam 3-C) | 20 | 360 | 30 | 20 | 13800 | 20
COCCn1cc(-c2ccc(Cl)cc2C[C@H]2C(=O)N(C)CCCCC=CC[C@H](N(C)C(=O)[C@@H](NC(=O)[C@@H]3C[C@@H](F)CN3C(=O)C3(C(F)(F)F)CC(F)(F)C3)C3CC3)C(=O)N[C@@H](CC(C)C)C(=O)N2C)cn1 [Example 44] | 20 | 270 | 30 | 40 | 6600 | 20
CC(C)C[C@@H]1NC(=O)[C@@H](N(C)C(=O)[C@H](CCC(=O)N(C)C)NC(=O)[C@@H]2C[C@@H](F)CN2C(=O)C2(C(F)(F)F)CC(F)(F)C2)CCCCCCCN(C)C(=O)[C@H](Cc2cc(Cl)ccc2-c2ccc(N3CCOCC3)cc2)N(C)C1=O [Example 419, (S)—N1-((3S,6S,9S)-3-((4-chloro-4′-morpholino-[1,1′-biphenyl]-2-yl)methyl)-6-isobutyl-1,4-dimethyl-2,5,8-trioxo-1,4,7-triazacyclohexadecan-9-yl)-2-((2S,4R)-1-(3,3-difluoro-1-(trifluoromethyl)cyclobutane-1-carbonyl)-4-fluoropyrrolidine-2-carboxamido)-N1,N5,N5-trimethylpentanediamide] ({cBuCO(3,3-F2-1-CF3)}-[Pro(trans-4-F)]E(NMe2)[NMehhhLys(Me)]L[NMePhe(2-(4-MorPh),5-Cl)]; lactam 3-C) | 20 | 540 | 20 | 20 | 1990 | 20
